Data reported in article PMC6933707, “Palmitoylethanolamide counteracts substance P-induced mast cell activation in vitro by stimulating diacylglycerol lipase activity” (Journal of Neuroinflammation, 2019).
Where two headings read alike, the source gives them in different places.

Key:
human recombinant DAGL-α = biological target: T1, human recombinant DAGL-α (Homo sapiens, UniProt Q9Y4D2); assay: DAGL-α enzyme activity assay (COS-7 membranes; radiolabelled substrate or 2-AG by LC-MS); format: biochemical
T1 construct: expressed in transfected cells; host or cells: COS-7
T1 sequence (Q9Y4D2 1-1042): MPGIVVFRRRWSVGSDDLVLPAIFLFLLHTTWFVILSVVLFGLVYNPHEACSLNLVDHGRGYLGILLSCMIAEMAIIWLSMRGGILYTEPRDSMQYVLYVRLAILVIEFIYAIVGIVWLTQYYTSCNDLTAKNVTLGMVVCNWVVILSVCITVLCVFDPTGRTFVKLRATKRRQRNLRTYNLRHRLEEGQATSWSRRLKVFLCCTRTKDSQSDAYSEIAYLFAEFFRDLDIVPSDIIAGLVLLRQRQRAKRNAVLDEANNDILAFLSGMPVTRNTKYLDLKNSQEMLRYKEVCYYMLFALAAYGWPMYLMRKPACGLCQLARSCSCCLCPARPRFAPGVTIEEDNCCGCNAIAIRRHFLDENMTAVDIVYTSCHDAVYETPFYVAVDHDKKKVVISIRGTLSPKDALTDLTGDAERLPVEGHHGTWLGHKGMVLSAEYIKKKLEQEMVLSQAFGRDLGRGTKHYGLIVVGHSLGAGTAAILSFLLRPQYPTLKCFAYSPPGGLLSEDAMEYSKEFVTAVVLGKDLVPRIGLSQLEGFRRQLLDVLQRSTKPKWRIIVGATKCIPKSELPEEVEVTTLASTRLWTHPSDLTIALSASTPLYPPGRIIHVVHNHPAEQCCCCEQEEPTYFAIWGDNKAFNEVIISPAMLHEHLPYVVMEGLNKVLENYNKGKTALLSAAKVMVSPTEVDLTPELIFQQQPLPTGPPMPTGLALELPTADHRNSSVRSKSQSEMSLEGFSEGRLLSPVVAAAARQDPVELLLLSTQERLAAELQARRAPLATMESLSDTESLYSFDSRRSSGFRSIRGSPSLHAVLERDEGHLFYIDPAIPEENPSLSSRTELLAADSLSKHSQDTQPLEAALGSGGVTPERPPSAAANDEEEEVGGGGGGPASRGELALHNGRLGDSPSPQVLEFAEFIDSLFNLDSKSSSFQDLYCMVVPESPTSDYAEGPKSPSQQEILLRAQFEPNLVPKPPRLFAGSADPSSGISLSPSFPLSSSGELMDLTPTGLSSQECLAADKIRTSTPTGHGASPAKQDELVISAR
Procedure: DAGL-α enzyme activity was assessed as previously reported by using membrane preparations (50 μg of protein) obtained from COS-7 cells overexpressing the human recombinant DAGL-α enzyme, and 1-[^14C]oleoyl-2-arachidonoylglycerol (1.0 mCi/mmol, 25 μM, synthesized as previously reported, as substrate in the presence of vehicle or increasing concentrations of PEA (0.1–25 μM) in Tris-HCl 50 mM pH 7.4. After the incubation (20 min at 37 °C), lipids were extracted with two volumes of CHCl3/CH3OH (2:1, v/v). The organic extracts, lyophilized under vacuum, were used to quantify the levels of 2-AG by LC-APCI-MS (as described above), or purified by using TLC on silica on polypropylene plates eluted in CHCl3/CH3OH/NH4OH (85:15:0.1%, v/v) as the eluting solvent. Bands corresponding to [^14C]-oleic acid were cut and their radioactivity was measured by using Liquid Scintillation Analyzer (TRI-carb 2100TR). Data were expressed as % of DAGL-α stimulation. To quantify the levels of 2-AG by LC-APCI-MS a non-radiolabeled 1-oleoyl-2-arachidonoylglycerol substrate was used.

human CB2 receptor = human CB2 receptor (Homo sapiens, UniProt P34972); assay: Competition binding assay for CB2 receptors ([3H]-CP-55,940 displacement); parameters: purchased Perkin Elmer; host or cells: HEK-293
From the text: Data were expressed as Ki (μM) and calculated by applying the Cheng-Prusoff equation to the IC50 values for the displacement of the bound radioligand.

RBL-2H3 cells [1] = assay: Toluidine blue staining, percentage of degranulation; format: cell-based, rat
Procedure: SP-stimulated RBL-2H3 cells [plated on poly-L-lysine (33 μg/ml) coated slides (Deckglaser, 21 × 26 mm) into 6-well culture dishes at a cell density of 9 × 10^5 cells per well] were treated and incubated as described above for histamine release assay. After 15 min, the cells were fixed with paraformaldehyde at 4% for 20 min and incubated for 3 min with toluidine blue at 0.01% in 3% acetic acid. Subsequently, a 5 min wash in distilled water and dehydration in increasing alcohols (90%, 100%) were performed. Cells were then clarified by treatment with Xylol for 5 min and finally dried slides were mounted with the DPX histogram upright. The cells were observed using a Leica DMI6000 digital microscope, acquired using the Leica DFC 340FX digital camera connected to the microscope and analyzed using the LAS AF 2.2.0 software. Degranulated RBL-2H3 cells were counted and the percentage of degranulation (based on the number of colorable cells) was calculated.

RBL-2H3 cells [2] = format: cell-based; details: 15 min
Procedure: The relative number of live and dead cells was measured after 15 min in RBL-2H3 cells (2 × 10^5 cells/well) stimulated with SP (10 μM) and treated with PEA (10 μM) by using MultiTox-Glo multiplex cytotoxicity kit, according to the manufacturer’s instructions (Promega Italia). Relative fluorescence units (RFU) were measured by using a GloMax Multi Detection System (Promega Italia).

[3] = SP (10 μM)-stimulated cells, PEA 10 μM, vs vehicle-stimulated cells
[4] = substance alone 10 μM, vs vehicle

Chain of human CB2 receptor (P34972 whole entry): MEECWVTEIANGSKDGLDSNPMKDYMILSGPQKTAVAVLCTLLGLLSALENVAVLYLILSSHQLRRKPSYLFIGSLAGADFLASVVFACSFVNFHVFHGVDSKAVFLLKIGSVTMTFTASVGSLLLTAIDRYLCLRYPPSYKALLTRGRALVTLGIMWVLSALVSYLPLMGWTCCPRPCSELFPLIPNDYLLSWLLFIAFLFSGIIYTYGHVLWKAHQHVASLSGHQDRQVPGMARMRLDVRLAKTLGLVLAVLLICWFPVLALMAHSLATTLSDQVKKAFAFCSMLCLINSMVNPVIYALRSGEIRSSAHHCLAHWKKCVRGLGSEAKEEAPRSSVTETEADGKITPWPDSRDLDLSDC

Compound: CCCCCCCCCCCCCCCC(=O)NCCO [PEA, Palmitoylethanolamide]
- elevation of levels of 2-AG produced by DAGL-α (LC-MS) (human recombinant DAGL-α; PEA 25 μM + substrate, compared to membrane preparations incubated alone (no substrate, no PEA)): 5.6 fold
- elevation of levels of 2-AG produced by DAGL-α (LC-MS) (human recombinant DAGL-α; PEA 25 μM, compared to membrane preparations incubated with the substrate 1-oleoyl-2-arachidonoylglycerol and without PEA): 1.4 fold
- EC50 (human recombinant DAGL-α; membranes of COS-7 cells over-expressing DAGL-α, 20 min 37 °C, read-out: EC50, stimulation of DAGL-α activity): 17.3 ± 2.35 µM
- [3H]-CP55,940 displacement (human CB2 receptor; PEA 10 μM per se, WIN55,212-2 10 μM = 100% displacement): 33.51 ± 5.28%
- Ki (human CB2 receptor; compound alone, displacement of [3H]-CP-55,940, HEK-293 membranes, 90 min 30 °C): > 10 µM
- number of degranulated cells (RBL-2H3 cells [1]; SP (10 μM)-stimulated cells, compound 0.1 μM, 15 min, vs SP + vehicle): comparable
- number of degranulated cells (RBL-2H3 cells [1]; SP (10 μM)-stimulated cells, compound 10 μM, 15 min, vs SP + vehicle): reduced the number of SP-degranulated RBL-2H3 cells
- number of degranulated cells (RBL-2H3 cells [1]; SP-stimulated cells co-treated with PEA 0.1 μM and 2-AG 0.1 μM, 15 min): able to reduce
- number of degranulated cells (RBL-2H3 cells [1]; SP-stimulated cells co-treated with PEA 10 μM and AM630 0.1 μM, vs SP + vehicle or SP + AM630): comparable
- number of degranulated cells (RBL-2H3 cells [1]; substance alone 10 μM, 15 min, vs vehicle): no effect
- cell viability (RBL-2H3 cells [2]; [3]): did not alter
- cytotoxicity (RBL-2H3 cells [2]; [3]): did not alter
- cell viability (RBL-2H3 cells [2]; [4]): No effect
- cytotoxicity (RBL-2H3 cells [2]; [4]): No effect
